# Measurements reported in patent publication US3972883A, “1,6-Dimethyl-8β-[2' or 3'-pyrroyloxyethyl or substituted pyrroyloxyethyl]-10α-methoxyergolene compounds” (Societa Farmaceutici Italia S.p.A., priority 1973, dated 1976).
# Columns and labels:
# [1] = tested on: lethal effects of Adrenaline; experiment: Adrenolytic activity "in vivo": protection against the lethal effects of Adrenaline (Luduena et al.); conditions: Rattus norvegicus, po; rats, os, 60 minutes before 200 mcg/Kg Adrenaline endovenous; read-out: ID50 (dose protecting 50% of the animals from the lethal effects of Adrenaline)
# Description: (§1) For the adrenolytic activity "in vivo" the method of Luduena et al. (Arch. int. Pharmacodyn., 122, 111, 1959) has been used, based on the evaluation of the protective action of the adrenolytic compounds against the lethal effects of Adrenaline.
# (§2) The drugs under examination are administered by the endovenous route dissolved in water, and by the oral route they are dissolved or suspended in 5% arabic gum, respectively at 5 and 60 minutes before a fixed dose of 200 mcg/Kg of Adrenaline by the endovenous route.
# (§3) Always 10 rats have been employed per group.
# (§4) The activity of the drug is expressed as the dose protecting 50% of the animals from the lethal effects of Adrenaline administered by the endovenous route (ED50).
# [2] = Therapeutic index (LD50/ID50), oral; conditions: in vivo, os, LD50 in mice, ID50 in rats
# Description: as §1, §2, §3, §4
# (§5) In order to evaluate the toxicity of the drugs under examination, increasing doses are administered to groups of 5-10 mice which are then followed for a period of 7 days.
# (§6) For administration by the oral route, the compounds are dissolved or suspended, according to the solubility, in 5% arabic gum. The LD50 expresses the dose of drug which causes the death of 50% of the animals.
# [3] = Toxicity: LD50 by the oral route, 7 days follow-up; conditions: mouse, in vivo, mice, os, followed for 7 days
# Description: as §5, §6
# [4] = Pharmacological activity of intermediates, general statement
# [5] = tested on: contractions caused by Adrenaline in seminal small bladder of Guinea-pig; experiment: Adrenolytic activity "in vitro": inhibition of contractions induced by Adrenaline in isolated seminal small bladder; conditions: Tyrode, 38°C, 3 minutes of contact, 1 mcg/ml Adrenaline
# Description: The adrenolytic activity of the new esters has been studied in comparison with that of Nicergoline [1,6-dimethyl-8β-(5'-bromonicotinoyloxymethyl)-10α-methoxyergoline] and of dihydroergotamine. The activity "in vitro" has been determined employing seminal small bladder of Guinea-pig immersed in Tyrode liquid wherein oxygen and 5% carbon dioxide are bubbled.
# The bath temperature is maintained constant at 38°C. The contractions induced by Adrenaline are registered on a chimograph by means of an isotonic lever. The activity of the drug under examination is expressed as the concentration in mcg/ml able, after 3 minutes of contact, to inhibit 50% of the contractions caused by 1 mcg/ml of Adrenaline (IC50).
Structure (SMILES),ED50 [1] [mg/kg],selectivity ratio [2],LD50 at 168 h [3] [mg/kg],pharmacological activity [4],IC50 (concentration inhibiting 50% of the contractions caused by 1 mcg/ml of Adrenaline) [5] [ng/mL]
"CCn1cccc1C(=O)OCC[C@H]1CN(C)[C@@H]2Cc3cn(C)c4cccc(c34)[C@@]2(OC)C1 [1,6-Dimethyl-8β-[1'-ethyl-2'-pyrroyloxyethyl]-10α-methoxyergoline]",0.025,5200,180,–,–
"CO[C@]12C[C@@H](CCO)CN(C)[C@@H]1Cc1cn(C)c3cccc2c13 [(V), 1,6-Dimethyl-8β-hydroxyethyl-10α-methoxyergoline]",–,–,–,slight pharmacological activity,–
"CO[C@]12C[C@@H](CCOC(=O)c3c(C)cc(C)n3C)CN(C)[C@@H]1Cc1cn(C)c3cccc2c13 [1,6-Dimethyl-8β-[1',3',5'-trimethyl-2'-pyrroyloxyethyl]-10α-methoxyergoline]",0.1,1300,100,–,–
"CN1C[C@H](C(=O)N[C@]2(C)O[C@@]3(O)[C@@H]4CCCN4C(=O)[C@H](Cc4ccccc4)N3C2=O)C[C@@H]2c3cccc4[nH]cc(c34)C[C@H]21 [Dihydroergotamine, reference compound]",15,–,–,–,15
"CO[C@]12C[C@@H](CCOC(=O)c3[nH]c(C)cc3C)CN(C)[C@@H]1Cc1cn(C)c3cccc2c13 [1,6-Dimethyl-8β-[3',5'-dimethyl-2'-pyrroyloxyethyl]-10α-methoxyergoline]",0.12,3750,300,–,–
"CO[C@]12C[C@@H](CCOC(=O)c3ccc[nH]3)CN(C)[C@@H]1Cc1cn(C)c3cccc2c13 [1,6-Dimethyl-8β-[2'-pyrroyloxyethyl]-10α-methoxyergoline]",0.06,6600,450,–,–
"CO[C@]12C[C@@H](CCOC(=O)c3cc[nH]c3C)CN(C)[C@@H]1Cc1cn(C)c3cccc2c13 [1,6-Dimethyl-8β-[2'-methyl-3'-pyrroyloxy-ethyl]-10α-methoxyergoline]",0.1,1300,100,–,1
"CO[C@]12C[C@@H](COC(=O)c3cncc(Br)c3)CN(C)[C@@H]1Cc1cn(C)c3cccc2c13 [Nicergoline, 1,6-dimethyl-8β-(5'-bromonicotinoyloxymethyl)-10α-methoxyergoline, reference compound]",7,90,632,–,1
